According to patent US7250304B2, “Functional assay of high-density lipoprotein” (The Regents of the University of California, priority 2000, dated 2007):

Key:
[1] = test system: HAEC monolayers; assay: Monocyte adhesion assay; type: cell-based, human; settings: LDL 250 μg pre-incubated with agent 4 hrs, re-isolated
Method: In brief, HAEC monolayers, in 48-well tissue culture plates were incubated with the desired LDL or phospholipid for 4 hrs at 37° C. as described (Watson et al. (1995) J. Clin. Invest. 96: 2882-2891). After washing, a suspension of human peripheral blood monocytes was added and incubated for 10 min. The loosely adherent monocytes were then washed away, the monolayers were fixed and the number of adherent monocytes counted in 9 high power microscopic fields.
Freshly isolated LDL (250 μg) was incubated with pure 13(S)-HPODE (1.0 μg) in 10% LPDS in M 199 for 4 hrs at 37° C. with gentle mixing. LDL was re-isolated by centrifugation and was incubated with monolayers of human aortic endothelial cells. […] The endothelial monolayer was washed after each time point and a monocyte suspension was added, incubated, washed, and the number of adherent monocytes determined.
Freshly isolated LDL (250 μg) was incubated with 10 units of pure soybean lipoxygenase bound to sepharose beads for 4 hrs at 37° C. with gentle mixing. […] The endothelial monolayer was washed after each time point and monocyte adhesion determined.
Blood samples were collected from patients referred to the cardiac catheterization laboratory at The Center for Health Sciences at the University of California, Los Angeles. […] The HDL-Ox-PAPC mixture was then added to endothelial monolayers and monocyte binding was determined.

[2] = test system: human aortic endothelial cells; assay: Lipid hydroperoxide formation when treated LDL is added to HAEC; type: cell-based; settings: LDL 250 μg pre-incubated with agent 4 hrs, re-isolated
Method: Freshly isolated LDL (250 μg) was incubated with pure 13(S)-HPODE (1.0 μg) in 10% LPDS in M 199 for 4 hrs at 37° C. with gentle mixing. LDL was re-isolated by centrifugation and was incubated with monolayers of human aortic endothelial cells. Supernatants were removed at time points ranging from zero to 5 hours and were assayed for lipid hydroperoxide content. The endothelial monolayer was washed after each time point and a monocyte suspension was added, incubated, washed, and the number of adherent monocytes determined.
Freshly isolated LDL (250 μg) was incubated with 10 units of pure soybean lipoxygenase bound to sepharose beads for 4 hrs at 37° C. with gentle mixing. LDL was re-isolated by centrifugation and incubated with monolayers of HAEC. Supernatants were removed at time points ranging from zero to 4 hours and were assayed for lipid hydroperoxide content. The endothelial monolayer was washed after each time point and monocyte adhesion determined.
(§1) Statistical significance was determined by model 1 ANOVA. […] Significance is defined as p<0.05.

[3] = Non-enzymatic oxidation of PAPC to POVPC, PGPC, PEIPC (ESI-MS); settings: for amount that significantly decreased PAPC and increased the three oxidized phospholipids: added to 10 μg of PAPC for 8 hours
[4] = Non-enzymatic formation of cholesteryl linoleate hydroperoxide (RP-HPLC); settings: 0.5 μg/ml with cholesteryl linoleate 10 μg/ml, air oxidation 6 hrs
Method: […] 0.5 μg/ml (Panel A) or cholesteryl linoleate 10 μg/ml (Panel B) or cholesteryl linoleate 10 μg/ml together with 13(S) HPODE 0.5 μg/ml (Panel C) in chloroform/methanol (2:1, v/v) containing 0.01% BHT was briefly swirled to mix and evaporated to dryness under argon and allowed to undergo air oxidation in a laminar flow hood for 6 hrs. The lipids were solubilized in 50 μl of chloroform and analyzed for the presence of cholesteryl linoleate hydroperoxide (Ch18:2-OOH) by RP-HPLC as described herein.
Fast performance liquid chromatography (FPLC) and reverse phase high performance liquid chromatography ([…]) were performed as described in example 1. For the detection of cholesteryl linoleate hydroperoxide an Alltech Alltima 250×4.6 mm, 5 micron RP-HPLC C18 column was used to separate and detect cholesteryl linoleate hydroperoxide at 234 nm and cholesteryl linoleate at 205 nm. The mobile solvent consisted of acetonitrile/2-propanol/water (44:54:2, v/v/v) at 1.0 ml/min. Lipids were resuspended in the mobile solvent for injection.

[5] = test system: human artery wall cell cocultures; assay: LDL oxidation by human artery wall cell cocultures (lipid hydroperoxides); type: cell-based; settings: for reduction in lipid hydroperoxide levels: cocultures preincubated with inhibitor 1×10^−8 mol/L before addition of LDL 250 μg/ml, 8 hrs; for oxidation of LDL by fatty acid pretreated artery wall cells: cocultures 18 hours with 100 μM fatty acid, washed, then LDL 250 μg/ml; for ability of pretreated artery wall cocultures to oxidize LDL: cocultures incubated 8 hrs with agent, agent removed before LDL 250 μg/ml
Method: (§2) The wells of the microtiter plates were treated with 0.1% gelatin at 37° C. overnight. HASMC were added at a confluent density of 1×10^5 cells/cm^2. Cells were cultured for 2 d at which time they had covered the entire surface of the well and had produced a substantial amount of extracellular matrix. HAEC were subsequently added at 2×10^5 cells/cm^2 and were allowed to grow forming a complete monolayer of confluent HAEC in 2 d. In all experiments, HAEC and autologous HASMC (from the same donor) were used at passage levels of four to six.
(§3) In general, the cocultures were treated with native LDL (250 μg/ml) in the absence or presence of HDL for 8 h. The supernatants were collected and used for determination of lipid hydroperoxide levels. The cocultures were subsequently washed and fresh culture medium 199 (M199) without any additions was added and incubated for an additional 8 hrs. This allowed the collection of monocyte chemotactic activity released by the cells as a result of stimulation by the oxidized LDL. At the end of incubation, the supernatants were collected from cocultures, diluted 40-fold, and assayed for monocyte chemotactic activity. Briefly, the supernatant was added to a standard Neuroprobe chamber (NeuroProbe, Cabin John, Md.), with monocytes added to the top. The chamber was incubated for 60 min at 37° C. After the incubation, the chamber was disassembled and the nonmigrated monocytes were wiped off. The membrane was then air dried and fixed with 1% glutaraldehyde and stained with 0.1% Crystal Violet dye. The number of migrated monocytes was determined microscopically and expressed as the mean±SD of 12 standardized high power fields counted in quadruple wells.
as §1
Human artery wall cocultures were preincubated with ETYA at a concentration of 10^−8 mol/L or with cinnamyl-3,4-dihydroxy-α-cyanocynamate (CDC, from Biomol) at a concentration of 10^−8 mol/L in M199 containing 10% LPDS for 30 min. The cocultures were then washed and LDL was added at 250 μg/ml and incubated for 8 hrs.

[6] = test system: human artery wall cell cocultures; assay: Monocyte chemotaxis assay on coculture conditioned medium; type: cell-based; settings: for decrease in LDL-induced monocyte chemotactic activity: cocultures preincubated with inhibitor 1×10^−8 mol/L before addition of LDL 250 μg/ml; for LDL-induced monocyte chemotaxis in fatty acid pretreated cocultures: cocultures 18 hours with 100 μM fatty acid, washed, then LDL; for LDL-induced monocyte chemotaxis in pretreated cocultures: cocultures incubated 8 hrs with agent, agent removed before LDL
Method: as §2
Monocytes were isolated using a modification of the Recalde method as previously described (Fogelman et al. (1988) J. Lipid Res. 29: 1243-1247) from the blood of normal volunteers after obtaining written consent under a protocol approved by the human research subject protection committee of the University of California, Los Angeles.
as §3

[7] = test system: human artery wall cell cocultures; assay: Hydroperoxide content of apo A-I lipid extract from fatty acid treated cocultures; type: cell-based; settings: cocultures with or without C18:2, then apo A-I 100 μg/ml 3 hrs
Method: The medium was removed and the cultures washed three times. Fresh medium without fatty acids was added and the cultures were incubated at 37° C. for an additional 3 hrs. […] at 250 μg/ml was then added to one set of the cocultures in M199 containing 10% LPDS and incubated for 8 hrs. The medium was then removed and lipid hydroperoxides (Panel A) and monocyte chemotactic activity (Panel B) determined. To the second set of cocultures (Panel C) apo A-I was added at 100 μg/ml and incubated for three more hours with gentle mixing at 37° C. […] Values are mean±SD of triplicate determinations. The asterisks denote p<0.001. […] (1991) Drug Metab. Dispos. 19: 100-106). Statistical significance was determined by model 1 ANOVA. […] Significance is defined as p<0.05.

[8] = test system: paraoxonase; settings: mice, six hours after injection

CCCCC[C@@H](/C=C/C=C\CCCCCCCC(=O)O)OO [13(S)-HPODE, 13(S)-hydroperoxyoctadecadienoic acid]
monocyte adherence to HAEC induced by treated LDL [1]: increased monocyte adherence to HAEC
formation of lipid hydroperoxides when treated LDL added to HAEC [2]: increased the formation of lipid hydroperoxides
ability to oxidize PAPC on a molar basis relative to hydrogen peroxide [3]: more than two orders of magnitude greater
formation of POVPC, PGPC, PEIPC from PAPC as a function of time ([3]; 1.0 μg added to 10 μg PAPC, air oxidation): enhanced the formation of the three biologically active oxidized phospholipids at each time point sampled
amount that significantly decreased PAPC and increased the three oxidized phospholipids [3]: 0.5 µg
non-enzymatic formation of cholesteryl linoleate hydroperoxide (Ch18:2-OOH) [4]: markedly stimulated the non-enzymatic formation of cholesteryl linoleate hydroperoxide

CCCCC[C@@H](/C=C/C=C\C/C=C\C/C=C\CCCC(=O)O)OO [15(S)-HPETE, 15(S)-hydroperoxyeicosatetraenoic acid]
ability to oxidize PAPC on a molar basis relative to hydrogen peroxide [3]: more than two orders of magnitude greater
amount that significantly decreased PAPC and increased the three oxidized phospholipids [3]: 0.5 µg

N#CC(=Cc1ccc(O)c(O)c1)C(=O)OCC=Cc1ccccc1 [CDC, cinnamyl-3,4-dihydroxy-α-cyanocynamate]
reduction in lipid hydroperoxide levels [5]: 73±6%
decrease in LDL-induced monocyte chemotactic activity [6]: 74±11%

CCCCCC#CCC#CCC#CCC#CCCCC(=O)O [ETYA, 5,8,11,14-eicosatetraynoic acid]
reduction in lipid hydroperoxide levels [5]: 80±7%
decrease in LDL-induced monocyte chemotactic activity [6]: 75±10%

CCCCC/C=C\C/C=C\C/C=C\C/C=C\CCCC(=O)O [arachidonic acid]
oxidation of LDL by fatty acid pretreated artery wall cells [5]: even more potent than linoleic acid

OO [hydrogen peroxide]
effect on relative abundance of PAPC and formation of oxidized phospholipids ([3]; 2 mM and 4 mM, 10 μg PAPC, 8 hours): had no effect
effect on relative abundance of PAPC ([3]; 8 mM added to 10 μg PAPC for 8 hours): dramatically decreased the relative abundance of PAPC

CCCCC/C=C\C/C=C\CCCCCCCC(=O)O [linoleic acid]
oxidation of LDL by fatty acid pretreated artery wall cells [5]: stimulates the oxidation of LDL by artery wall cells
LDL-induced monocyte chemotaxis in fatty acid pretreated cocultures [6]: stimulates LDL-induced monocyte chemotaxis
13-HPODE equivalents in the lipid extract of apo A-I [7]: dramatically increased the 13-HPODE equivalents

CCCCCCCC/C=C\CCCCCCCC(=O)O [oleic acid]
oxidation of LDL by fatty acid pretreated artery wall cells [5]: not
LDL-induced monocyte chemotaxis in fatty acid pretreated cocultures [6]: not

DWL KAF YDK VAE KLK EAF PDW LKA FYD KVA EKL KEA F (DWLKAFYDKVAEKLKEAFPDWLKAFYDKVAEKLKEAF; Synthetic apo A-I peptide mimetic) [37 pA]
ability of pretreated artery wall cocultures to oxidize LDL [5]: unable to oxidize the added LDL
LDL-induced monocyte chemotaxis in pretreated cocultures [6]: did not induce monocyte chemotaxis
LDL-induced monocyte chemotactic activity of LDL pre-incubated with the agent ([6]; human LDL incubated with agent, re-isolated, then cocultures): did not induce monocyte chemotactic activity

apo A-II: Human apo A-II obtained from Sigma
ability of pretreated artery wall cocultures to oxidize LDL [5]: retained their ability to oxidize LDL
LDL-induced monocyte chemotaxis in pretreated cocultures [6]: induce monocyte chemotaxis
PON activity in plasma and HDL, increase [8]: did not change
